# Results: patent publication US20230130403A1, “METHODS OF TREATMENT WITH S1P RECEPTOR MODULATORS” (PRIOTHERA SAS, priority 2021, published 2023)
# Tests used:
# [1] = Plasma toxicokinetics in dog
# S1P1 [2] = target: T1, S1P1 (Homo sapiens, UniProt P21453); assay: S1P1 internalization; type: cell-based
# Text: KRP203 reduces lymphocyte counts in peripheral blood by more than 80%.
# bacterial mutation = assay: In vitro genotoxicity: bacterial mutation; type: cell-based
# chromosome aberration = assay: In vitro genotoxicity: chromosome aberration; type: cell-based
# S1P1 [3] = target: T1, S1P1; assay: S1P receptor agonism on S1P1; type: biochemical
# Text: (§1) KRP203 (mocravimod) is an immunomodulator that selectively targets sphingosine 1-phosphate (S1P) receptors via its phosphorylated active metabolite. […] The therapeutic effects are believed to be due to the prevention of effector lymphocyte recirculation from lymphatic tissue to susceptible target organs such as the gut, skin or CNS.
# S1P5 = S1P5 (Homo sapiens, UniProt Q9H228); assay: S1P receptor agonism on S1P5; type: biochemical
# Text: as §1
# [4] = tested on: guinea pig papillary muscle preparation; assay: APD in guinea pig papillary muscle preparation; conditions: concentrations of 3 μM
# Text: (§2) Based on the available in vitro and in vivo data, except for the potential to cause a negative chronotropic effect and some mild increase in blood pressure, there is no indication that KRP203 would cause arrhythmia or QT prolongation in man.
# [5] = target: CYP3A4 via the human PXR receptor (Homo sapiens, UniProt O75469); assay: CYP3A4 induction via PXR; type: in vitro ADME
# [6] = In vivo plasma ratio of phosphorylated KRP203 to KRP203 in rat
# Procedure: (§3) The in vivo ratio of phosphorylated KRP203 to KRP203 in plasma was up to 45 in rat. As the metabolic activities on KRP203 in human blood and hepatocytes were lower than those of other species, the metabolic clearance of KRP203 in man is expected be lower than that in rat and dog. […] KRP230 formed low amounts of covalent drug-protein adducts in human hepatocytes in vitro. Due to the low levels detected ([…] at 3 hours) in-vitro adduct formation is unlikely to be associated with clinical relevant findings at low dose levels (e.g. below 10 mg).
# hS1P3 = hS1P3 (Homo sapiens, UniProt Q99500); assay: S1P receptor agonism on S1P3; type: biochemical
# Text: as §1
# hERG channels = hERG channels (Homo sapiens, UniProt Q12809); assay: hERG channel inhibition in vitro; type: biochemical; conditions: up to the highest concentration tested, 3 μM
# Text: as §2
# [7] = In vitro metabolite profile in human hepatocytes; type: in vitro ADME
# [8] = tested on: GPCRs, ion channels, transporters, nuclear receptors and enzymes; assay: Off-target binding assays; conditions: compared to estimated free plasma concentration at 3 mg/day
# Text: Thus it is unlikely that secondary pharmacology effects should arise due to non-specific receptor activation at therapeutic doses.
# [9] = Plasma toxicokinetics in rat
# [10] = tested on: human cytochrome P450 isoenzymes; assay: Inhibition of cytochrome P450 isoenzymes in vitro; type: in vitro ADME
# Procedure: as §3
# The weak inhibitory effect of ciclosporin on hepatic CYP3A4 is unlikely to relevantly impact the PK of KRP203.
# S1P4 = S1P4 (Homo sapiens, UniProt O95977); assay: S1P receptor agonism on S1P4; type: biochemical
# Text: as §1
# [11] = tested on: acute GVHD after allogeneic HSCT; conditions: preclinical; cited from earlier work
# [12] = tested on: peripheral lymphocyte counts; assay: Recovery of absolute lymphocyte counts after S1P modulator dosing in healthy volunteers; type: in vivo, human; conditions: single 1 mg FTY720, BAF312 multiple doses for 28 days, single 3 mg KRP203
# Procedure: Mocravimod is particularly preferred. […] A measurable parameter that determines maintenance of the mode of action, i.e., sequestering of lymphocytes in secondary lymphoid organs and bone marrow, is reduction of peripheral lymphocyte counts. Recovery of absolute lymphocyte counts to 80% of normal counts after a single 1 mg dose of FTY720, multiple dose applications of BAF312 for 28 days, or a single 3 mg dose of KRP203 was reached after 8, 7 and more than 10 days, respectively.
# S1PR1 versus S1PR3-5 = conditions: cited from earlier work
# [13] = Pharmacokinetics of [14C]KRP203 radioactivity in rats; type: in vivo, rat
# Text: Following intravenous administration of [14C]KRP203, radioactivity was readily distributed to rat and dog tissues with similar volume of distribution (Vss=8.0 L/kg in rat).
# [14] = Tissue distribution of [14C]KRP203 radioactivity in Wistar rats; type: in vivo, rat
# Text: Highly exposed tissues were liver and to a smaller extent kidney, small intestine, adrenal gland, lungs, spleen and mesenteric lymph nodes.
# [15] = Pharmacokinetics of [14C]KRP203 radioactivity in dogs; type: in vivo, dog; conditions: oral administration
# Plasma protein binding = type: in vitro ADME; conditions: human plasma
# T1 sequence (P21453 whole entry): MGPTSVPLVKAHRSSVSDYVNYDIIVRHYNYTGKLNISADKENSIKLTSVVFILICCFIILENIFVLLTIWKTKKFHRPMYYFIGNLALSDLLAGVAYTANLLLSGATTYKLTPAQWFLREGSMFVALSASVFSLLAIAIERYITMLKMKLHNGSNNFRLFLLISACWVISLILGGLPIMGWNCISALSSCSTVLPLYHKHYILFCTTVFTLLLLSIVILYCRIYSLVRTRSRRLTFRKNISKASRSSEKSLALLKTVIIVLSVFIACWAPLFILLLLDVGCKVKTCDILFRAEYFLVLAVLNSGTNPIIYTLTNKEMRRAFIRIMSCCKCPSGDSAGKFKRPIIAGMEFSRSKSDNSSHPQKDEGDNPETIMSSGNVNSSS
# Sequence of CYP3A4 via the human PXR receptor (O75469 whole entry): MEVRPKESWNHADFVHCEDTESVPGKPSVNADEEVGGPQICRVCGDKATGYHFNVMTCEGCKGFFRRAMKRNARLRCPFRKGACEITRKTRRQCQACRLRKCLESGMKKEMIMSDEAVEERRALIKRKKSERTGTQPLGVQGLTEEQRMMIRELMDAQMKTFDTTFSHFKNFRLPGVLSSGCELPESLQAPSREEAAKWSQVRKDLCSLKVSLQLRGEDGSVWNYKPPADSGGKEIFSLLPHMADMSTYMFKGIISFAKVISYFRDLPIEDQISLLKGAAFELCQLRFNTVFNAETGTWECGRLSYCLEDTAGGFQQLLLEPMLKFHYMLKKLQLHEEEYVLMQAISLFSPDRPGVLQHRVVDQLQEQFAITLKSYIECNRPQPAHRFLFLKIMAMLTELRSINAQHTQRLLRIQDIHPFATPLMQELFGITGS
# Sequence of hERG channels (Q12809 whole entry): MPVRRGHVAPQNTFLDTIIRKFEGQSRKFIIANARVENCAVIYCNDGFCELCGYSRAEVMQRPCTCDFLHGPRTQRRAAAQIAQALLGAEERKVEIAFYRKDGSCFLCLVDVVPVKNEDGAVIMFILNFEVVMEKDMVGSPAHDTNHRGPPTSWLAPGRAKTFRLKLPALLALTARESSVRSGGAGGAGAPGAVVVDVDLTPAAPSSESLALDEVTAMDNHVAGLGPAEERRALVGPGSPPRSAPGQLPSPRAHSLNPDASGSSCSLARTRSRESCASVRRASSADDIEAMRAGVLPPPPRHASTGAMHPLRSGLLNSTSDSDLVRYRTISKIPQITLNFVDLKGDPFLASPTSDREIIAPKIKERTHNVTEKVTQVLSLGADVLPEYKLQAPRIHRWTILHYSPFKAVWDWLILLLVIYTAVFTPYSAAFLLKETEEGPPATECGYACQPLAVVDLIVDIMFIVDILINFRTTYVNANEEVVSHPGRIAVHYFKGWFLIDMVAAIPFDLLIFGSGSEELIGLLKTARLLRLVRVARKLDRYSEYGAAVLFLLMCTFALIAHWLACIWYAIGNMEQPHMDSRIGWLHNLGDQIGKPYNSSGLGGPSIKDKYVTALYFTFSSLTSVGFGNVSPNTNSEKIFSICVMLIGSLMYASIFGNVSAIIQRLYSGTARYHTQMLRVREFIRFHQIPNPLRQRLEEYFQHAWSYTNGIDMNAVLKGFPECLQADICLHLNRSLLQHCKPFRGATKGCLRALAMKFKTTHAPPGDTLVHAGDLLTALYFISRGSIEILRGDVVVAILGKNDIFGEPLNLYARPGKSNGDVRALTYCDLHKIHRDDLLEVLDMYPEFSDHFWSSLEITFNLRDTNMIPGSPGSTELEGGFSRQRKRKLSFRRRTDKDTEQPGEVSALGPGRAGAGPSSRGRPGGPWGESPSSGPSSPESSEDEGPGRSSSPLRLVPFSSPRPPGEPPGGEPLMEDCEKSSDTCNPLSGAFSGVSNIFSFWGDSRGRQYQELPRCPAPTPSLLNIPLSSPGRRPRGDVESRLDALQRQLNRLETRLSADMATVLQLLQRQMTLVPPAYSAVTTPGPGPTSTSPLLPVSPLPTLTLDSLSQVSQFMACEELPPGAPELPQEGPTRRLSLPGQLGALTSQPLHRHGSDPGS
# Sequence of hS1P3 (Q99500 whole entry): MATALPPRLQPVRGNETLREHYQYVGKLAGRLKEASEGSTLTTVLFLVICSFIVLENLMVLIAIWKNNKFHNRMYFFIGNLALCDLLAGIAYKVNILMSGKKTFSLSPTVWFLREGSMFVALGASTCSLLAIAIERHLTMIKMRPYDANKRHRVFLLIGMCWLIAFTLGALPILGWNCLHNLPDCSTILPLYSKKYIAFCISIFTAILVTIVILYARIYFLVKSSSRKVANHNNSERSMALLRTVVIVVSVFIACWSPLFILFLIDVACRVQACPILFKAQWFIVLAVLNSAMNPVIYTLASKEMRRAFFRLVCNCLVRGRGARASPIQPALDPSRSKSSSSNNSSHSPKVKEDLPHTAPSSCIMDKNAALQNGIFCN
# Sequence of S1P5 (Q9H228 whole entry): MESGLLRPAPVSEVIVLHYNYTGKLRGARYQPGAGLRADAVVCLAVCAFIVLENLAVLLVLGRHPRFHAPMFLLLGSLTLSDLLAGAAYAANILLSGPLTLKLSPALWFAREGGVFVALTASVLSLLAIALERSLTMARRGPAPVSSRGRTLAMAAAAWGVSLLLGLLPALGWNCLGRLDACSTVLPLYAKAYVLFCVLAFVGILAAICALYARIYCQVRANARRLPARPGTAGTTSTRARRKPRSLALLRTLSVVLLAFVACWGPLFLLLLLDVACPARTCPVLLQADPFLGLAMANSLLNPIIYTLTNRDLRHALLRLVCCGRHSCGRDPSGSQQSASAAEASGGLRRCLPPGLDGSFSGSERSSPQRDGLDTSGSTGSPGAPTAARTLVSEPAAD
# Sequence of S1P4 (O95977 whole entry): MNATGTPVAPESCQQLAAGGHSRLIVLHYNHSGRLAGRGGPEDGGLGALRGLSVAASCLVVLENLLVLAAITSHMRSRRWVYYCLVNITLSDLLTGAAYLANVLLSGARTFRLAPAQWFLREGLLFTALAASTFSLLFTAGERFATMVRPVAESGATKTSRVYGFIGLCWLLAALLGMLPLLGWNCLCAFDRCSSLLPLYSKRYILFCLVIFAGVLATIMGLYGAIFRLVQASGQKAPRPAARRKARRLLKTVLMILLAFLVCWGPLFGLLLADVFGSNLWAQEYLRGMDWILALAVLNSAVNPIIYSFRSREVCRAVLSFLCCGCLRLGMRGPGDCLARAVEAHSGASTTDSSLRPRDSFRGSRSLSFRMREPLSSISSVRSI
compound,measurement,setting,value
KRP203-phosphate,KRP203-phosphate/KRP203 ratio (based on AUC0-24 h),[1],1.4-6.6
same,accumulation after repeated dosing (4 and 13 weeks),[1],no evidence of accumulation
same,proportionality between exposure and dose,[1]; single and multiple doses (4 and 13 weeks),trend for an under proportionality at all dose levels
same,internalization of the S1P1,S1P1 [2],long-lasting and complete internalization
same,genotoxic potential,bacterial mutation,no evidence for a genotoxic potential
same,genotoxic potential,chromosome aberration,no evidence for a genotoxic potential
same,agonist activity,S1P1 [3],potent agonist
same,agonist activity,S1P5,potent but partial agonist
same,APD prolongation,[4],No APD prolongation
same,no significant induction of CYP3A4 via the human PXR receptor up to concentration,[5],≤ 50 µM
same,in vivo ratio of phosphorylated KRP203 to KRP203 in plasma,[6],up to 45
same,agonist activity,hS1P3,potent but partial agonist
same,effects on hERG channels,hERG channels,did not show significant effects
same,metabolite abundance in human hepatocytes,[7],among the more prominent metabolites
same,safety margins in off-target binding assays,[8],large safety margins
same,KRP203-phosphate/KRP203 ratio (based on AUC0-24 h),[9],10.9-19.1
same,proportionality between exposure and dose,[9]; single and multiple administrations,apparent proportionality between exposure and dose
same,effect on cytochromes P450 enzymes and transporters,[10],lack of effect
same,agonist activity,S1P4,potent agonist
CCCCCCCCc1ccc(CCC(N)(CO)CO)cc1 [FTY720],effect on acute GVHD,[11],ameliorate acute GVHD
same,Recovery of absolute lymphocyte counts to 80% of normal counts,[12],8 days
same,S1P receptor selectivity,S1PR1 versus S1PR3-5,poor selectivity for S1PR1 versus S1PR3-5
CCc1cc(/C(C)=N/OCc2ccc(C3CCCCC3)c(C(F)(F)F)c2)ccc1CN1CC(C(=O)O)C1 [BAF312],Recovery of absolute lymphocyte counts to 80% of normal counts,[12],7 days
NC(CO)(CO)CCc1ccc(Sc2cccc(OCc3ccccc3)c2)cc1Cl [[14C]KRP203],volume of distribution Vss,"[13]; intravenous administration, rat",8.0 L/kg
same,radioactivity Tmax,"[13]; oral administration, male rats",7 h
same,total radioactivity in brain relative to plasma,[14]; 14-day multiple oral dose 0.5 mg/kg/day,accumulated more in brain relative to plasma and eliminated much slower
same,"radioactivity in CNS tissues (cerebrum, cerebellum and medulla oblongata) versus plasma",[14]; until 24 h post-dose after single administration,lower than in plasma
same,radioactivity Tmax,[15],9.3 h
same,fraction unbound,Plasma protein binding,< 0.01
